This note sets out measurements from article PMC12377313, “New 1E,1′E-hydrazine-bis(phenoxy-1,2,3-triazol-acetamide) derivatives as potent inhibitors against acetylcholinesterase, butyrylcholinesterase, and α-glucosidase” (RSC Advances, 2025).

Read-outs that look alike come from different tables or passages of the source. A value given as a limit tells only on which side of the number the result lay.

One test has as its target AChE (Homo sapiens, UniProt P22303). In words: biochemical. Format: biochemical.
For another test, the target named is α-glucosidase (Saccharomyces cerevisiae, UniProt P53341). In words: α-Glucosidase inhibition assay (p-NPG substrate). Format: biochemical, yeast. On the procedure: For this assay, the yeast form of α-glucosidase was used and p-nitrophenyl-α-D-glycopyranoside (p-NPG) was used as the substrate. The required solutions of these materials were prepared in a phosphate buffer solution (pH of 7.4 and a concentration of 5 mM). […] Subsequently, a mixture containing 200 μL of phosphate solution, 50 μL of the substrate, and 5–200 μL of the sample solution was pre-incubated at 35 °C for 3 min for α-glucosidase.

Test [1] concerns SH-SY5Y neuroblastoma cells. Put plainly: MTT cell viability assay, SH-SY5Y. The conditions noted are these: for Selectivity (selectivity index): HEK293 versus SH-SY5Y; for IC50: read-out: IC50 (μM) SH-SY5Y. Format: cell-based, human. As to the method:
The cells were incubated at 37 °C in a humidified atmosphere of 5% CO2. Both cell lines were provided by the American Type Culture Collection (ATCC).[30,31]
Each concentration was tested in triplicate.
(§1) Following treatment, 10 μL of MTT solution (5 mg mL^−1 in PBS) was added to each well and incubated for an additional 4 hours under the same conditions. At the end of the incubation period, the medium containing MTT was carefully removed, and the formazan crystals formed by viable cells were solubilized in 100 μL of DMSO per well. The absorbance was measured at 570 nm using a microplate reader. The net absorbance (after blank subtraction) was used to calculate the percentage cell viability relative to the untreated control cells, which was set at 100%. All results were expressed as mean ± standard deviation (SD) of three independent experiments.[32,33]

The subject of test [2] is HEK293 embryonic kidney cells. Put plainly: MTT cell viability assay, HEK293. Format: cell-based. The note with it: Homo sapiens, read-out: IC50 (μM) HEK-293. On the procedure:
The human neuroblastoma cell line SH-SY5Y (ATCC® CRL-2266™) and HEK293 (ATCC® CRL-1573™) human embryonic kidney cells were grown in Dulbecco's Modified Eagle Medium/Nutrient Mixture F-12 (DMEM/F-12) culture containing 10% heat-inactivated fetal bovine serum (FBS) and 1% antibiotics. The cells were incubated at 37 °C in a humidified atmosphere of 5% CO2. Both cell lines were provided by the American Type Culture Collection (ATCC).[30,31]
SH-SY5Y (ATCC® CRL-2266™) and HEK293 (ATCC® CRL-1573™) cells were seeded into 96-well plates at a density of 5 × 10^3 cells per well, and allowed to adhere overnight in a humidified incubator at 37 °C with 5% CO2. After attachment, the cells were treated with eight different concentrations of the target compounds (200, 100, 50, 25, 12.5, 6.25, 3.125, and 1.5625 μM), prepared via serial 1 : 2 dilutions, for 24 hours. Each concentration was tested in triplicate.
as §1
On the technique in general: Tetrazolium assays rely on reduction of a dye to a coloured formazan, in cell work by metabolically active cells.

The next test deals with BChE (Homo sapiens, UniProt P06276). In words: biochemical.
Where [3] appears, read: Homo sapiens, SH-SY5Y, 24 h, 24 h treatment, MTT, mean ± SD (n = 3).
Where [4] appears, read: HEK293, 24 h treatment, MTT, mean ± SD (n = 3).
[5] abbreviates: 24 h treatment, MTT, mean ± SD (n = 3).

AChE, sequence (P22303 32-614): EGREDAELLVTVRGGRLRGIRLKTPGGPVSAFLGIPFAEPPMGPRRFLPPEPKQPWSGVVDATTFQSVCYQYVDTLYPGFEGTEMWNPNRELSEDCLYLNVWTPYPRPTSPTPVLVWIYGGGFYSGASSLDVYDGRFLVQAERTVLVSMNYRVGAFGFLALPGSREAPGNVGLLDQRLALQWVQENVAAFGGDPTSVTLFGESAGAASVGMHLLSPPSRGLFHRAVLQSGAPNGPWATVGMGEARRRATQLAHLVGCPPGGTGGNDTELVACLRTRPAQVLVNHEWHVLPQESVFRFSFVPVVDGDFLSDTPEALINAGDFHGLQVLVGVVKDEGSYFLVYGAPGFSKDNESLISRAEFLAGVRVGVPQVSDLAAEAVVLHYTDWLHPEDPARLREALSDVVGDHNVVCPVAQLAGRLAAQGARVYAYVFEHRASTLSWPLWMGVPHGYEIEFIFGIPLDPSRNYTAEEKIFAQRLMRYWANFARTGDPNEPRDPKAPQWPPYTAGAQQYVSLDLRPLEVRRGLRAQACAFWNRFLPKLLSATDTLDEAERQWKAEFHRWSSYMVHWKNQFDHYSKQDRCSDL
α-glucosidase, sequence (P53341 whole entry): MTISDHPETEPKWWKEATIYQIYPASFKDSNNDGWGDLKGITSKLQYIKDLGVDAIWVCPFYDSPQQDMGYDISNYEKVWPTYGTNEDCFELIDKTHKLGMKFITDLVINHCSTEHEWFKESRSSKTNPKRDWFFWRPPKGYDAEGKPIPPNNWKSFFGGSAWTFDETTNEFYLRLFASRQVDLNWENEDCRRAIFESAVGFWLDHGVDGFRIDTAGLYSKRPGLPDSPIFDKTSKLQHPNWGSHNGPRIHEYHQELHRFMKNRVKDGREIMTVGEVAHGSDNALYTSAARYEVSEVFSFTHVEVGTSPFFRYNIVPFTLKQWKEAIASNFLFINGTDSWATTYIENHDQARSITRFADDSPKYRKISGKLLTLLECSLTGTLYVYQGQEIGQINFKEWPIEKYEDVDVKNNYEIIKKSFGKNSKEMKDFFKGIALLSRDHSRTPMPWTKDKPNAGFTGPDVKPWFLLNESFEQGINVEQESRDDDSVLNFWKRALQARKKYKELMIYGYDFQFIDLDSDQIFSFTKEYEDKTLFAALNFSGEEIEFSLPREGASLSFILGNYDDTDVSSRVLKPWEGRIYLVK
BChE, sequence (P06276 29-602): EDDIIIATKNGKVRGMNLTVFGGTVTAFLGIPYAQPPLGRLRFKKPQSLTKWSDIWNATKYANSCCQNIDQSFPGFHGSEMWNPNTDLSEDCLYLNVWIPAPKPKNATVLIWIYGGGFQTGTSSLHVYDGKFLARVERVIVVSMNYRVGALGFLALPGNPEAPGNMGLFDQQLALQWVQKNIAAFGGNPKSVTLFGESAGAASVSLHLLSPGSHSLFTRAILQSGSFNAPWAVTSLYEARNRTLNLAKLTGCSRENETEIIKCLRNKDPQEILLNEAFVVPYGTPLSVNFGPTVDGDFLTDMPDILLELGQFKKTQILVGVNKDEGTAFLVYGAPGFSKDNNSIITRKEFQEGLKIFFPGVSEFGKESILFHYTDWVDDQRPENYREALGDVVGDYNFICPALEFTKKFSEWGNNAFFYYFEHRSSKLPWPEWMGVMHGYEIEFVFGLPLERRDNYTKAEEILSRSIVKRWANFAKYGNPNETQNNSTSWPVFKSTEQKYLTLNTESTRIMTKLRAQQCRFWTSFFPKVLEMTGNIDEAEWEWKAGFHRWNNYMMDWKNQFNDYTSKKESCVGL

With `Cc1ccccc1NC(=O)Cn1cc(COc2ccc(/C=N/N=C/c3ccc(OCc4cn(CC(=O)Nc5ccccc5C)nn4)cc3)cc2)nn1` [Compound 10a, 2,2′-((((((1E,1′E)-Hydrazine-1,2-diylidenebis(methaneylylidene))bis(4,1-phenylene))bis(oxy))bis(methylene))bis(1H-1,2,3-triazole-4,1-diyl))bis(N-(o-tolyl)acetamide)], the IC50 (usually the point on the concentration scale where inhibition reaches its midpoint) came to 163 ± 5.38 nM at AChE (read-out: IC50 (nM) AChE); 43.1 ± 8.21 nM on α-glucosidase; 8.22 ± 0.12 µM in test [1] (setting [3]); 78.21 ± 0.42 µM in test [2] (setting [4]); 18.4 ± 3.09 nM on BChE. Besides, the “Selectivity (selectivity index)” value in test [1] is on record as 9.5.

Regarding `Cc1cccc(NC(=O)Cn2cc(COc3ccc(/C=N/N=C/c4ccc(OCc5cn(CC(=O)Nc6cccc(C)c6)nn5)cc4)cc3)nn2)c1` [Compound 10b, 2,2′-((((((1E,1′E)-Hydrazine-1,2-diylidenebis(methaneylylidene))bis(4,1-phenylene))bis(oxy))bis(methylene))bis(1H-1,2,3-triazole-4,1-diyl))bis(N-(m-tolyl)acetamide)], the IC50 at AChE (read-out: IC50 (nM) AChE) is 167 ± 9.46 nM; at α-glucosidase, 62.1 ± 5.43 nM; in test [1] (setting [3]) it was 15.8 ± 0.2 µM; in test [2] (setting [4]) it was 43.42 ± 0.36 µM; on BChE it was 18.3 ± 4.84 nM. Further, the “Selectivity (selectivity index)” value in test [1] was 2.7.

In the case of `Cc1ccc(NC(=O)Cn2cc(COc3ccc(/C=N/N=C/c4ccc(OCc5cn(CC(=O)Nc6ccc(C)cc6)nn5)cc4)cc3)nn2)cc1` [Compound 10c, 2,2′-((((((1E,1′E)-Hydrazine-1,2-diylidenebis(methaneylylidene))bis(4,1-phenylene))bis(oxy))bis(methylene))bis(1H-1,2,3-triazole-4,1-diyl))bis(N-(p-tolyl)acetamide)], the IC50 on AChE (read-out: IC50 (nM) AChE) is 164 ± 9.7 nM; against α-glucosidase it was 67 ± 7.88 nM; in test [1] (setting [5]), 11.9 ± 0.2 µM; in test [1] (setting [3]) it was 12 to 16 µM; in test [2] (setting [4]) it was 46.91 ± 0.32 µM; on BChE, 17.1 ± 3.21 nM. Also, in test [1], the “Selectivity (selectivity index)” value came to 3.9.

For the compound `Cc1cccc(NC(=O)Cn2cc(COc3ccc(/C=N/N=C/c4ccc(OCc5cn(CC(=O)Nc6cccc(C)c6C)nn5)cc4)cc3)nn2)c1C` [Compound 10d, 2,2′-((((((1E,1′E)-Hydrazine-1,2-diylidenebis(methaneylylidene))bis(4,1-phenylene))bis(oxy))bis(methylene))bis(1H-1,2,3-triazole-4,1-diyl))bis(N-(2,3-dimethylphenyl)acetamide)], the IC50 was 131 ± 7.23 nM at AChE (read-out: IC50 (nM) AChE); 71.2 ± 8.14 nM against α-glucosidase; 16.4 ± 0.21 µM in test [1] (setting [5]); 12 to 16 µM in test [1] (setting [3]); 75.22 ± 0.35 µM in test [2] (setting [4]); 14.9 ± 2.08 nM at BChE. Also, the “Selectivity (selectivity index)” value in test [1] was found to be 4.6.

On to `COc1ccc(NC(=O)Cn2cc(COc3ccc(/C=N/N=C/c4ccc(OCc5cn(CC(=O)Nc6ccc(OC)cc6OC)nn5)cc4)cc3)nn2)c(OC)c1` [Compound 10e, 2,2′-((((((1E,1′E)-Hydrazine-1,2-diylidenebis(methaneylylidene))bis(4,1-phenylene))bis(oxy))bis(methylene))bis(1H-1,2,3-triazole-4,1-diyl))bis(N-(2,4-dimethoxyphenyl)acetamide)], for which the IC50 at AChE (read-out: IC50 (nM) AChE) is 140 ± 9.43 nM; against α-glucosidase, 58.5 ± 4.27 nM; in test [1] (setting [5]), 33.19 ± 0.25 µM; in test [1] (setting [3]), more than 30 µM; in test [2] (setting [4]), 68.95 ± 0.41 µM; against BChE, 16.3 ± 2.09 nM. Moreover, in test [1], the “Selectivity (selectivity index)” value is 2.1.

Take `CCc1ccc(NC(=O)Cn2cc(COc3ccc(/C=N/N=C/c4ccc(OCc5cn(CC(=O)Nc6ccc(CC)cc6)nn5)cc4)cc3)nn2)cc1` [Compound 10f, 2,2′-((((((1E,1′E)-Hydrazine-1,2-diylidenebis(methaneylylidene))bis(4,1-phenylene))bis(oxy))bis(methylene))bis(1H-1,2,3-triazole-4,1-diyl))bis(N-(4-ethylphenyl)acetamide)]: the IC50 on AChE (read-out: IC50 (nM) AChE) worked out at 159 ± 6.17 nM; at α-glucosidase, 66.4 ± 4.43 nM; in test [1] (setting [3]), 7.33 ± 0.11 µM; in test [2] (setting [4]) it was 33.2 ± 0.55 µM; on BChE, 17 ± 5.46 nM. The “Selectivity (selectivity index)” value in test [1] was 4.5.

With `O=C(Cn1cc(COc2ccc(/C=N/N=C/c3ccc(OCc4cn(CC(=O)Nc5ccccc5F)nn4)cc3)cc2)nn1)Nc1ccccc1F` [Compound 10g, 2,2′-((((((1E,1′E)-Hydrazine-1,2-diylidenebis(methaneylylidene))bis(4,1-phenylene))bis(oxy))bis(methylene))bis(1H-1,2,3-triazole-4,1-diyl))bis(N-(2-fluorophenyl)acetamide)], the IC50 on AChE (read-out: IC50 (nM) AChE) stood at 112 ± 9.6 nM; against α-glucosidase, 56.7 ± 6.34 nM; in test [1] (setting [3]) it was 12.9 ± 0.13 µM; in test [2] (setting [4]) it was 86.45 ± 0.52 µM; on BChE, 12.4 ± 3.21 nM. Moreover, the “Selectivity (selectivity index)” value in test [1] was 6.7.

For the compound `O=C(Cn1cc(COc2ccc(/C=N/N=C/c3ccc(OCc4cn(CC(=O)Nc5cccc(Cl)c5)nn4)cc3)cc2)nn1)Nc1cccc(Cl)c1` [Compound 10i, 2,2′-((((((1E,1′E)-Hydrazine-1,2-diylidenebis(methaneylylidene))bis(4,1-phenylene))bis(oxy))bis(methylene))bis(1H-1,2,3-triazole-4,1-diyl))bis(N-(3-chlorophenyl)acetamide)], the IC50 at AChE (read-out: IC50 (nM) AChE) is 164 ± 9.54 nM; against α-glucosidase it was 45.8 ± 4.71 nM; in test [1] (setting [3]), 4.26 ± 0.08 µM; in test [2] (setting [4]), 37.4 ± 0.55 µM; on BChE it was 15.3 ± 3.16 nM. For the same compound, the “Selectivity (selectivity index)” value in test [1] is recorded as 8.8.

On to `O=C(Cn1cc(COc2ccc(/C=N/N=C/c3ccc(OCc4cn(CC(=O)Nc5ccc(Cl)cc5)nn4)cc3)cc2)nn1)Nc1ccc(Cl)cc1` [Compound 10j, 2,2′-((((((1E,1′E)-Hydrazine-1,2-diylidenebis(methaneylylidene))bis(4,1-phenylene))bis(oxy))bis(methylene))bis(1H-1,2,3-triazole-4,1-diyl))bis(N-(4-chlorophenyl)acetamide)], for which the IC50 was determined as 145 ± 6.23 nM on AChE (read-out: IC50 (nM) AChE); 34.3 ± 3.49 nM on α-glucosidase; 6.75 ± 0.18 µM in test [1] (setting [3]); 67.43 ± 0.47 µM in test [2] (setting [4]); 16.4 ± 4.43 nM against BChE. The “fold diminished anti-AChE inhibitory activity relative to 10k” value at AChE (removal of 2-chloro substituent, versus 10k) was 1.3 fold. Further, the “folds more potent than the standard inhibitor acarbose against α-glucosidase” value at α-glucosidase (relative to acarbose) worked out at 1.7 fold. Further, in test [1], the “Selectivity (selectivity index)” value came out at 10.0.

Turning to `O=C(Cn1cc(COc2ccc(/C=N/N=C/c3ccc(OCc4cn(CC(=O)Nc5ccc(Br)cc5)nn4)cc3)cc2)nn1)Nc1ccc(Br)cc1` [Compound 10l, 2,2′-((((((1E,1′E)-Hydrazine-1,2-diylidenebis(methaneylylidene))bis(4,1-phenylene))bis(oxy))bis(methylene))bis(1H-1,2,3-triazole-4,1-diyl))bis(N-(4-bromophenyl)acetamide)], the IC50 was 148 ± 8.23 nM at AChE (read-out: IC50 (nM) AChE); 39.1 ± 5.1 nM against α-glucosidase; 42.15 ± 0.37 µM in test [1] (setting [5]); more than 30 µM in test [1] (setting [3]); 92.86 ± 0.71 µM in test [2] (setting [4]); 16.4 ± 4.74 nM against BChE. The “Selectivity (selectivity index)” value in test [1] came out at 2.2.

For `O=C(Cn1cc(COc2ccc(/C=N/N=C/c3ccc(OCc4cn(CC(=O)Nc5ccccc5[N+](=O)[O-])nn4)cc3)cc2)nn1)Nc1ccccc1[N+](=O)[O-]` [Compound 10m, 2,2′-((((((1E,1′E)-Hydrazine-1,2-diylidenebis(methaneylylidene))bis(4,1-phenylene))bis(oxy))bis(methylene))bis(1H-1,2,3-triazole-4,1-diyl))bis(N-(2-nitrophenyl)acetamide)], the IC50 turned out to be 157 ± 8.65 nM on AChE; 36.6 ± 4.86 nM on α-glucosidase (read-out: IC50 (nM) α-Glucosidase); 28.33 ± 0.26 µM in test [1] (Homo sapiens, SH-SY5Y, 24 h); 46.45 ± 0.45 µM in test [2] (HEK293, 24 h); 16.9 ± 4.83 nM against BChE. Besides, the “Selectivity (selectivity index)” value in test [1] stood at 1.6.

For the compound `CNC(=O)c1cc(Oc2ccc(NC(=O)Nc3ccc(Cl)c(C(F)(F)F)c3)cc2)ccn1` [Sorafenib, reference compound], the IC50 came out at 3.88 ± 0.12 µM in test [1] (setting [3]) and 16.22 ± 0.14 µM in test [2] (setting [4]).
